# How the values were obtained:
# Type in all cases: in vivo
# [1] = system: sago pondweed (Stuckenia pectinata); assay: Native plant selectivity screening in aquaria, sago pondweed (Example 6); settings: 50-3200 ug/L
# Description: Materials and Methods: The study was conducted in an indoor aquaria facility. Elodea (Elodea canadensis) was obtained from cultures. Two apical tips approximately 10 cm long were planted into each of 48, plastic containers (16 oz. plastic cups). The containers were filled with potting soil and amended with 2 g/L Osmocote® fertilizer 19-6-12. A layer of sand was placed on top of the sediment in each container to prevent sediment re-suspension in the aquaria. Two containers of potted elodea were placed into each of 24 aquaria measuring 11.5 in×11.5 in×24 in. Additionally, sago pondweed (Stuckenia pectinata) tubers were obtained. The tubers were floated in shallow containers filled with water until new sprouts began to grow.
# Once sprouted, two tubers were planted into 16 oz containers in a similar fashion as elodea. Two containers of potted sago pondweed were placed into each of the 24 aquaria, so that each aquarium had 4 potted plants (2 pots of each species). […]
# At four weeks after treatment (WAT), plants were, harvested, sorted to aboveground biomass, dried in a forced air oven at 50 C for at least 48 h, and weighed for biomass determination (g/DW/aquaria). Differences between treatments were analyzed using an ANOVA, and if treatment differences were detected; means were separated using a Tukey's All-Pairwise comparison test. […]
# water hyacinth [2] = assay: Foliar application of fluroxypyr herbicide on water hyacinth (Example 2); settings: for Water hyacinth biomass reduction: 6 WAT
# Description: Materials and Methods: Water hyacinth was obtained from field locations and cultured outdoors in a 300 gallon tank. Water in the culture tank was amended with 30 mg/L Miracle-Gro® fertilizer (14-8-16) every week to maintain plant growth. Aquashade® was added to the tank in sufficient concentration to darken the water in order to reduce algae growth
# Once a sufficient density of water hyacinth had been achieved in the culture tank (plants had covered the water surface), 54-63 rosettes of similar size were harvested and divided so that six to seven rosettes (depending upon size) were placed into each of 9, 100 gallon treatment tanks. The treatment tanks were filled to a depth of 45 cm with water. Water in each treatment tank was amended and maintained in a similar fashion as the culture tank. Plants were allowed to grow approximately 2 weeks or until the water surface in each tank had been covered. Pre-treatment biomass (1 per tank) was harvested using a 0.1 m^2 PVC quadrat. The quadrat was pushed down over the plant mat in each tank and all biomass was harvested within the PVC frame. Biomass from each tank was rinsed, placed in a paper bag, and dried at 50 C to assess biomass.
# After the growth period and pre-treatment harvest, plants were treated as a foliar spray using the product and rates outlined in Table 3. Treatments were applied using water as a carrier in a fine foliar spray and a total spray volume of 100 gal/acre. AB Brand Adjuvant (commercially available from Lonza, Inc.) was included in the herbicide solution at a rate of 0.25% v:v.
# After treatment, each tank was rated on a scale from 0 (no control) to 100% (complete mortality) control every week for six weeks. At six weeks after treatment the 0.1 m^2 PVC quadrat was used to harvest 1 biomass sample from each tank if living biomass was present. Samples were rinsed, placed into labeled paper bags, and dried at 50 C to determine dry weight biomass. Differences between treatments were analyzed using ANOVA at a p≤0.05 significance level, and if a difference in treatments was detected means were then separated using a Fisher's Protected LSD test.
# water hyacinth [3] = assay: Fluroxypyr ester and four potassium salt formulations as foliar application on water hyacinth (Example 5)
# Description: Materials and Methods: Water hyacinth was obtained from field locations in Mississippi and cultured in a 300 gallon tank outdoors. Water in the culture tank was amended with 30 mg/L Miracle-Gro fertilizer (14-8-16) every week to maintain plant growth. Once a sufficient density of water hyacinth had been achieved in the culture tank, rosettes of similar size were harvested and divided so that six to seven rosettes were placed into each of 33, 100 gallon treatment tanks. The treatment tanks were filled to a depth of 45 cm with water. Water was amended with 30 mg/L of Miracle-Gro fertilizer to maintain plant growth. Plants were allowed to grow until the water surface in each tank had been covered by water hyacinth.
# After the growth period plants were treated as a foliar spray based on the formulations and rates in Table 7. The treatments contained the fluroxypyr herbicide in an amount of 15% by weight. Each surfactant was added in an amount of 10% by weight. The remainder of the formulation was distilled water. Treatments were applied using water as a carrier in a fine foliar spray at a total spray volume of 100 gal/acre using a CO2 pressurized backpack sprayer and single nozzle boom. AB Brand Adjuvant was included in the herbicide solution at a rate of 0.25% v:v.
# After treatment, each tank was rated for percent control from 0 to 100% control every week for four weeks. At four weeks after treatment (WAT) a 0.1 m^2 PVC quadrat was used to harvest 1 biomass sample from each tank if living biomass was present. Biomass samples were placed into labeled paper bags, dried in a forced air oven at 50 C for five days, and then weighed to determine dry weight biomass (g/DW/m^2). Differences between treatments were analyzed using ANOVA and means separated using a Fisher's Protected LSD test. All analyses were conducted a p≤0.05 significance level.
structure (smiles),measurement,setting,value
"CCCCCCC(C)OC(=O)COc1nc(F)c(Cl)c(N)c1Cl (centres unmarked) [Fluroxypyr ester, [(4-amino-3,5-dichloro-6-fluoro-2-pyridinyl)oxy]acetic acid, 1-methylheptyl ester]",adverse effects on sago pondweed,[1]; four weeks of static exposure,did not exhibit any adverse effects
same,visible herbicide symptoms on sago pondweed,"[1]; throughout the study, static exposure",no visible herbicide symptoms
same,Mean percent control ratings of water hyacinth,"water hyacinth [2]; 8 oz/acre foliar spray, 1 week after treatment",15%
same,Mean percent control ratings of water hyacinth,"water hyacinth [2]; 8 oz/acre foliar spray, 2 weeks after treatment",40%
same,Mean percent control ratings of water hyacinth,"water hyacinth [2]; 8 oz/acre foliar spray, 3 weeks after treatment",45%
same,Mean percent control ratings of water hyacinth,"water hyacinth [2]; 8 oz/acre foliar spray, 4 weeks after treatment",65%
same,Mean percent control ratings of water hyacinth,"water hyacinth [2]; 8 oz/acre foliar spray, 5 weeks after treatment",85%
same,Water hyacinth biomass reduction,water hyacinth [2]; 8 oz/acre foliar spray,90%
same,Mean percent control ratings of water hyacinth,"water hyacinth [2]; 8 oz/acre foliar spray, 6 weeks after treatment",85%
same,time of plant death,water hyacinth [2]; 16 oz/acre foliar spray,approximately 4 WAT
same,Mean percent control ratings of water hyacinth,"water hyacinth [2]; 16 oz/acre foliar spray, 1 week after treatment",35%
same,Mean percent control ratings of water hyacinth,"water hyacinth [2]; 16 oz/acre foliar spray, 2 weeks after treatment",45%
same,Mean percent control ratings of water hyacinth,"water hyacinth [2]; 16 oz/acre foliar spray, 3 weeks after treatment",65%
same,Mean percent control ratings of water hyacinth,"water hyacinth [2]; 16 oz/acre foliar spray, 4 weeks after treatment",85%
same,Mean percent control ratings of water hyacinth,"water hyacinth [2]; 16 oz/acre foliar spray, 5 weeks after treatment",95%
same,Water hyacinth biomass reduction,water hyacinth [2]; 16 oz/acre foliar spray,99%
same,Mean percent control ratings of water hyacinth,"water hyacinth [2]; 16 oz/acre foliar spray, 6 weeks after treatment",95%
same,efficacy on water hyacinth biomass relative to the other fluroxypyr treatments,"water hyacinth [3]; 4 WAT, Ester 8 oz/acre, potassium salt formulations 10 oz/acre, FIG. 6",not as efficacious as the other fluroxypyr treatments
same,Mean percent control ratings of water hyacinth,"water hyacinth [3]; 8 oz/acre foliar, 1 WAT",20%
same,Mean percent control ratings of water hyacinth,"water hyacinth [3]; 8 oz/acre foliar, 2 WAT",25%
same,Mean percent control ratings of water hyacinth,"water hyacinth [3]; 8 oz/acre foliar, 3 WAT",55%
same,Mean percent control ratings of water hyacinth,"water hyacinth [3]; 8 oz/acre foliar, 4 WAT",75%
same,Mean percent control ratings of water hyacinth,"water hyacinth [3]; 16 oz/acre foliar, 1 WAT",20%
same,Mean percent control ratings of water hyacinth,"water hyacinth [3]; 16 oz/acre foliar, 2 WAT",45%
same,Mean percent control ratings of water hyacinth,"water hyacinth [3]; 16 oz/acre foliar, 3 WAT",85%
same,Mean percent control ratings of water hyacinth,"water hyacinth [3]; 16 oz/acre foliar, 4 WAT",95%
